In patent publication US10358409B2, “Low-toxicity olefinic ester compositions and methods of using the same” (Elevance Renewable Sciences, Inc., priority 2014, dated 2019):

System: leptocheirus plumolosus
Test: Aquatic toxicity, EPA Test No. 1644, percent survival after 10 days of exposure
Assay type: in vivo
Method: The aquatic toxicity of three cyclohexyl esters were tested against three comparative compounds. Aqueous samples of the following solvents were prepared at concentrations of 3200 mg/kg: xylene (Sample 2A); methyl 9-dodecenoate (Sample 2B); methyl esters of a mixture of C13-15 olefinic acids (Sample 2C); cyclohexyl 9-decenoate (Sample 2D); cyclohexyl 9-dodecenoate (Sample 2E); and cyclohexyl esters of a mixture of C13-15 olefinic acids. Using United States Environmental Protection Agency (EPA) Test No. 1644, the toxicity of the aqueous compositions was measured as the percent survival of leptocheirus plumolosus after 10 days of exposure. Table 1 recites the survival rates for each of the above compositions.

[1] = Leptocheirus plumolosus, in vivo, 3200 mg/kg, 10 days

| Compound | Survival Rate (%) [1] [%] | Survival Rate (%) (aqueous samples of the solvent at 3200 mg/kg, percent survival of leptocheirus plumolosus after 10 days of exposure) |
| --- | --- | --- |
| CCC=CCCCCCCCC(=O)OC [Sample 2B, methyl 9-dodecenoate] | 47 |  |
| C=CCCCCCCCC(=O)OC1CCCCC1 [Sample 2D, cyclohexyl 9-decenoate] | 57 |  |
| CCC=CCCCCCCCC(=O)OC1CCCCC1 [Sample 2E, cyclohexyl 9-dodecenoate] | 89 |  |
| xylene [Sample 2A] |  | 69 |
